Measurements published in PMC7551609 (Viruses, 2020).
Entries after “also recorded” stand apart in the source; their conditions may differ.

Experiments:
[1] = MTT cell viability in A549 cells; format: cell-based, human; conditions: human, highest concentration used 50.00 µM, sentence also cites [17]
ZIKV Paraiba/2015 [2] = assay: Viral inhibition assay, co-treatment, Vero cells; format: cell-based, Zika virus; conditions: for Co-treatment MIC (maximum effective concentration): Vero cells, ZIKV Paraiba/2015, co-treatment
[3] = MTT cell viability assay in Vero cells; format: cell-based, African green monkey; conditions: African green monkey, non-infected Vero cells, 36 h post-treatment
ZIKV Paraiba/2015 [4] = assay: Growth kinetics inhibition assay (infectious viral progeny), Vero cells; format: cell-based, Zika virus
ZIKV Paraiba/2015 [5] = assay: Viral inhibition assay, post-infection treatment, Vero cells; format: cell-based, Zika virus; conditions: for EC50: ZIKV Paraiba/2015, Vero cells, post-infection treatment, 36 h; for MIC: read-out: Post-treatment MIC (maximum effective concentration)
ZIKV MR-766 strain = assay: Viral inhibition assay, post-treatment, old World strain, Vero cells; format: cell-based, Zika virus; conditions: for inhibitor category based on SI-MTT and SI-XTT: ZIKV MR-766, Vero; for EC50 / MIC: Zika virus; for EC50: old World ZIKV MR-766, Vero cells, post-treatment; for MIC: old World ZIKV MR-766 strain, read-out: MR766 MIC (maximum effective concentration)
ZIKV Paraiba/2015 [6] = assay: Viral inhibition assay, post-treatment, human A549 cells; format: cell-based, Zika virus; conditions: for inhibitor category based on SI-MTT and SI-XTT: Paraiba/2015, A549 cells; for MIC / EC50: Zika virus; for MIC: in Homo sapiens, read-out: A549 cells MIC (maximum effective concentration); for EC50: ZIKV Paraiba/2015, A549 cells, post-treatment, 36 h
ZIKV Paraiba/2015 [7] = assay: Viral inhibition assay, pre-treatment (prophylactic), Vero cells; format: cell-based, Zika virus; conditions: for MIC / EC50: Zika virus; for MIC: read-out: Pre-treatment MIC (maximum effective concentration); for EC50: ZIKV Paraiba/2015, Vero cells, pre-treatment 12 h before infection; for inhibitor category based on SI-MTT / inhibitor category based on SI-XTT: pre-treatment, Paraiba/2015, Vero
[8] = XTT cell proliferation assay in Vero cells; format: cell-based, African green monkey; conditions: African green monkey, non-infected Vero cells, 36 h post-treatment
[9] = XTT cell proliferation in A549 cells; format: cell-based, human; conditions: human, highest concentration used 50.00 µM, sentence also cites [17]
ZIKV PRVABC59 strain = assay: Viral inhibition assay, post-treatment, new World strain, Vero cells; format: cell-based, Zika virus; conditions: for inhibitor category based on SI-MTT and SI-XTT: ZIKV PRVABC59, Vero; for EC50 / MIC: Zika virus; for EC50: new World ZIKV PRVABC59, Vero cells, post-treatment, 48 h; for MIC: new World ZIKV PRVABC59, read-out: PRVABC59 MIC (maximum effective concentration)
[10] = co-treatment, Paraiba/2015, Vero
[11] = post-treatment, Paraiba/2015, Vero

## CC[C@H](CC#N)OC(=O)N[C@@H](C)c1cccc(NC(=O)Nc2ccc(-c3cnco3)c(OC)c2)c1 [AVN-944]
[1]
  CC50: > 50 µM
ZIKV Paraiba/2015 [2]
  Co-treatment MIC (maximum effective concentration): > 100.00 µM
ZIKV Paraiba/2015 [2]; [10]
  inhibitor category based on SI-MTT and SI-XTT: moderate
[3]; confluent monolayers
  CC50 at 36 h: 273 µM
ZIKV Paraiba/2015 [4]; 0.1, 1, 10 EC50, all time points (24, 48, 72 h post-treatment), MOI 0.1
  effect on production of infectious viral progeny (viral titers): dose-dependent inhibitory effect
ZIKV Paraiba/2015 [5]
  EC50: 0.98 µM
ZIKV Paraiba/2015 [5]; Zika virus, Vero
  EC50: 0.84 µM
ZIKV Paraiba/2015 [5]; Zika virus
  MIC: < 11.1 µM
ZIKV Paraiba/2015 [5]; [11]
  inhibitor category based on SI-MTT and SI-XTT: most potent; also recorded: potent
ZIKV MR-766 strain
  inhibitor category based on SI-MTT and SI-XTT: most potent; also recorded: potent
  EC50: 0.33 µM
  MIC: < 1.23 µM
ZIKV Paraiba/2015 [6]
  inhibitor category based on SI-MTT and SI-XTT: Potent
  MIC: < 0.41 µM
  EC50: 0.05 µM
ZIKV Paraiba/2015 [7]
  MIC: < 100 µM
  EC50: 11.1 µM
  inhibitor category based on SI-MTT: Potent
  inhibitor category based on SI-XTT: moderate
[8]; confluent monolayers
  CC50 at 36 h: > 1350 µM
[9]
  CC50: > 50 µM
ZIKV PRVABC59 strain
  inhibitor category based on SI-MTT and SI-XTT: potent
  EC50: 0.38 µM
  MIC: < 1.23 µM

## CCCCCC[C@H]1C(=O)O[C@H](C)[C@H](NC(=O)c2cccc(NC=O)c2O)C(=O)O[C@@H](C)[C@@H]1OC(=O)CC(C)C [Antimycin A]
[1]
  CC50: > 50 µM
ZIKV Paraiba/2015 [2]
  Co-treatment MIC (maximum effective concentration): > 100.00 µM
ZIKV Paraiba/2015 [2]; [10]
  inhibitor category based on SI-MTT: moderate
  inhibitor category based on SI-XTT: potent
[3]
  CC50 at 36 h: 51.3 µM
ZIKV Paraiba/2015 [4]; 72 h post-treatment
  effect on production of infectious viral progeny (viral titers): dose-dependent effect
ZIKV Paraiba/2015 [5]; Zika virus, Vero
  EC50: 1.29 µM
ZIKV Paraiba/2015 [5]; Zika virus
  MIC: < 100 µM
ZIKV Paraiba/2015 [5]; [11]
  inhibitor category based on SI-MTT: weak
  inhibitor category based on SI-MTT and SI-XTT: moderate to weak
  inhibitor category based on SI-XTT: potent
ZIKV MR-766 strain
  inhibitor category based on SI-MTT and SI-XTT: most potent; also recorded: potent
  EC50: 0.03 µM
  MIC: < 33.3 µM
ZIKV Paraiba/2015 [6]
  inhibitor category based on SI-MTT and SI-XTT: weak
  MIC: < 11.1 µM
  EC50: 1.71 µM
ZIKV Paraiba/2015 [7]
  MIC: < 100 µM
  EC50: 8.95 µM
  inhibitor category based on SI-MTT: moderate
  inhibitor category based on SI-XTT: moderate
[8]
  CC50 at 36 h: > 1350 µM
[9]
  CC50: > 50 µM
ZIKV PRVABC59 strain
  inhibitor category based on SI-MTT and SI-XTT: weak
  EC50: 7.32 µM
  MIC: < 33.3 µM
